Test results published in US7345078B2, “NF-κB inhibitors and uses thereof” (The Board of Trustees of Michigan State University, priority 2002, dated 2008).
“Also recorded” adds a separate entry of the source. Read-outs that look alike come from different tables or passages of the source.

How the values were obtained:
CEM cells = tested on: CEM cells
Protocol: Imidazolines 28-33 were evaluated for their ability to enhance the activity of camptothecin in CEM cells. Induction of apoptosis is the hallmark of most chemotherapeutic agents including camptothecin. The systematic disassembly of apoptotic cells is accomplished by active caspases (Thornberry et al., Nature 356: 768-774 (1992); Nicholson et al., Trends Biochem. Sci. 22: 299-306 (1997)). A standard apoptosis assay is Promega's APO-ONE homogeneous caspase-3/7 assay, which takes advantage of this caspase activity to directly quantify the induction of apoptosis in cells (Thornberry et al., Nature 356: 768-774 (1992); Nicholson et al., Trends Biochem. Sci. 22: 299-306 (1997)). According to the hypothesis that NF-κB inhibition should enhance the activity of chemotherapeutic agents via the inhibition of anti-apoptotic signaling pathway—thus enhancement of apoptosis—(Boland, Biochem Soc Trans 29: 674-678 (2001); Chiao et al., Cancer 95: 1696-1705 (2002)), we investigated the effects of the imidazolines using this caspase-3/7 assay. This assay quantifies the level of apoptotic cell death induced by camptothecin with and without the imidazolines and will establish the direct level of enhancement of apoptosis by camptothecin.
Induction of apoptosis using caspase 3/7 assay was as follows. CEM cells (CCRF-CEM); Amer. Type Culture Collection, Rockville, Md.) were grown in RPMI-1640 Media (Gibco-BRL, Rockville, Md.) supplemented with 10% fetal bovine serum, penicillin (614 ηg/mL), streptomycin (10 μg/mL) and hepes buffer, pH 7.2 at 37° C., 5% CO2. DMSO was used as the vector for all drugs and added in the control experiments. Cell cultures were treated with 1 μM, 0.1 μM or 10 nM of the imidazolines and allowed to incubate at 37° C., 5% CO2. An aliquote was transferred to a 96-well plate and mixed with an equal volume of Apo-ONE™ Homogenous Caspase-3/7 assay (Promega Corporation) reagent. The contents of the plate were gently mixed and allowed to incubate for 1 hour. The fluorescence of each well was then measured on a Molecular Imager FX Pro at 532 nm. All reported data was the average of two independent experiments unless otherwise indicated.

[1] = IP, doses 5.0 and 50 mg/kg
Protocol: Prior to the combinatorial studies, the toxicity of the compounds was determined in the mouse model. […] In short, the drugs are dissolved in DMSO and 100 μL given to the mice on day 0 by intraperitoneal injection (IP). […] Weight and death were the two measures of toxicity.

NF-κB [2] = target: T1, NF-κB (Homo sapiens, UniProt P19838+Q04206); experiment: IC50 values in Mammalian Jurkat cells Leukemia T cells; assay type: cell-based; design: endogenous in cells; host or cells: Jurkat leukemia T-cells, clone E6-1 (ATCC), PMA-stimulated; nuclear extract; settings: concentration at which 50% of the protein/enzyme is inhibited in cells
Protocol: (§1) All compounds were evaluated for their potential anti-inflammatory activity by examining the activity of NF-κB in vitro in nuclear extracts using the procedure from Breton and Charbot-Fletcher (Breton et al., J. Pharmacol. Exp. Ther. 282 459-466 (1997)). […] The Jurkat cells (1×10^7 cells/mL) are subsequently treated with various concentrations of imidazoline for 30 minutes at 37° C. followed by PMA stimulation (5.0 ng/mL) for an additional 5 hours. Nuclear extracts are incubated for 20 minutes with a double stranded Cy3 labeled NF-κB consensus oligonucleotide, 5′-[…]-3′ (SEQ ID NO:1) at room temperature. The crude mixture is loaded on a 5% non-denaturing polyacrylamide gel prepared in 1×Tris borate/EDTA buffer and electrophoresed at 200V for 2 hours. After electrophoresis the gel is analyzed using a phosphorimager (Biorad FX PLUS) for detection of the NF-κB-DNA binding.
IC50 values in Mammalian Jurkat cells Leukemia T cells: IC50 value is defined as the concentration of compounds at which 50% of the protein/enzyme is inhibited in cells (Table 3).

NF-κB [3] = target: T1, NF-κB; experiment: EMSA of nuclear NF-κB-DNA binding in nuclear extracts of PMA-stimulated Jurkat leukemia T-cells; assay type: cell-based; design: endogenous in cells; host or cells: Jurkat leukemia T-cells, clone E6-1 (ATCC), PMA-stimulated; nuclear extract; settings: for inhibition at 0.1 µM: compound 0.1 μM (100 nM)
Protocol: as §1
EMSA assay for NF-κB-DNA binding was as follows. […] The Jurkat cells (1×10^6 cells/mL) were subsequently treated with various concentrations of the compounds for 30 minutes at 37° C. and 5% CO2 followed by PMA (50 ng/mL) and PHA ([…]) stimulation for an additional 30 minutes. The cells were harvested by centrifugation, washed in ice cold PBS and the nuclear extracts were prepared as previously described (Dignam, et al., Nucl. Acids Res 11: 1475-1489 (1983)). The protein concentration of the extracts was determined according to the Method of Bradford (1976) with BioRad reagents. Nuclear extracts are incubated for 20 minutes at room temperature with a double stranded Cy3 labeled NF-kB consensus oligonucleotide, 5′-[…] CCAGGC-3′ (SEQ ID NO:1). The binding mixture ([…]) contained 10 mM HEPES-NaOH pH 7.9, 4 mM tris-HCl, pH 7.9, 6.0 mM KCl, 1 mM EDTA, 1 mM DTT, 10% glycerol, 0.3 mg/mL bovide serum albumin and […] of poly (dI.dC). The binding mixtures ([…] of nuclear extract protein) were incubated for 20 minutes at room temrperature with 0.16 pmol of Cy3 labeled oligonucleotide. The mixture was loaded on a 4% polyacrylamide gel prepared in 1× tris borate/EDTA buffer and was electrophoresed at 200 V for 20 minutes. After electrophoresis the gel was analyzed using a phosphorimager (Biorad FX plus) for detection of the NF-kB—DNA binding.

Micrococcus luteus = experiment: standardized disk diffusion method (zone diameter / MIC); assay type: cell-based; settings: at the amount printed in the same cell
Protocol: (§2) Compounds 4, 6, and 7 were tested for the inhibition of bacteria. A total of 9 bacterial strains were screened. The following Gram-negative and Gram-positive bacteria were included: Staphylococcus aureus, Enterobacter aerogenes, Esherichia coli, Klebsiella pneumonia, Pseudomonas aeruginosa, Serratia marcescens, Bacillus cerius, Bacillus subtillus and micrococcus luteus. Bacterial isolates were removed from storage, streaked on to nutrient agar plates and incubated for 18-24 hours at 35° C. A working bacterial suspension was prepared by suspending 3-5 isolated colonies in 5 mL saline solution. The turbidity of this suspension was carefully adjusted photometrically to equal that of a 0.5 McFarland standard. The zone diameters were determined by a standardized disk diffusion method using cation-supplemented Mueller-Hinton agar according to NCCLS guidelines (National Committee for Clinical Laboratory Standards. Methods for dilution Antimicrobial Susceptibility Tests for Bacteria that Grow Aerobically. Fifth Edition: Approved Standard M7-A5. Wayne, Pa.: NCCLS (2000)). Minimum inhibitory concentrations (MICs) were considered the lowest concentration that gave a clear zone of inhibition. The inoculated agar plates were incubated for 16-20 hours at 35° C. in ambient air. The diameters of the zones were read in millimeters.

NF-κB [4] = target: T1, NF-κB; experiment: EMSA of camptothecin activated NF-κB in CEM leukemia T-cells; assay type: cell-based; design: endogenous in cells; nuclear extract; settings: for inhibition of camptothecin induced NF-κB nuclear binding: CPT 0.1 μM, 32 at 10 μM to 10 nM, PDTC 5 μM
Protocol: CEM cells were incubated with and without varying concentrations of camptothecin (CPT). Positive controls included PMA/PHA activation (FIG. 11, lane 2). Lane 3 included a positive control using PMA/PHA activation followed by the treatment of the extract with a NF-κB p65 antibody to unambiguously identify the NF-κB/DNA complex.
CEM cells were treated with various concentration of imidazoline 32, 30 minutes prior to activation by camptothecin (0.1 μM). […] Control lanes include: DNA only (lane 1), PMA/PHA activated NF-κB (lane 2), PMA/PHA activated NF-κB treated with a p65 antibody, which provide a supershift (lane 3) and the unactivated control (lane 4).
EMSA assay for NF-κB-DNA binding was as follows. […] The cells were harvested by centrifugation, washed in ice cold PBS and the nuclear extracts were prepared as previously described (Dignam, et al., Nucl. Acids Res 11: 1475-1489 (1983)). The protein concentration of the extracts was determined according to the Method of Bradford (1976) with BioRad reagents. Nuclear extracts are incubated for 20 minutes at room temperature with a double stranded Cy3 labeled NF-kB consensus oligonucleotide, 5′-[sequence] […] The binding mixture (25 mL) contained 10 mM HEPES-NaOH pH 7.9, 4 mM tris-HCl, pH 7.9, 6.0 mM KCl, 1 mM EDTA, 1 mM DTT, 10% glycerol, 0.3 mg/mL bovide serum albumin and 1 mg of poly (dI.dC). The binding mixtures (10 mg of nuclear extract protein) were incubated for 20 minutes at room temrperature with 0.16 pmol of Cy3 labeled oligonucleotide. The mixture was loaded on a 4% polyacrylamide gel prepared in 1× tris borate/EDTA buffer and was electrophoresed at 200 V for 20 minutes. After electrophoresis the gel was analyzed using a phosphorimager (Biorad FX plus) for detection of the NF-kB—DNA binding.

[5] = tested on: NF-κB p50/p65 heterodimer; experiment: p65-ELISA assay of NF-κB nuclear translocation in Jurkat cells; assay type: cell-based, Human; settings: concentrations 100 ηM-5.0 μM, 30 minutes prior to PMA activation
Protocol: Inhibition of the nuclear translocation of the p50/p65 heterodimer of NF-κB was confirmed by a p65-ELISA assay. Cells were treated with the PDTC (positive control-reported to inhibit IκB phosphorylation thus inhibiting NF-κB translocation), and imidazoline 32, 30 minutes prior to PMA activation, followed by the isolation of the nuclear extract after a 30 minute incubation period.
The quantity of p65/p50 heterodimer that has translocated into the nucleus was measured using a NF-κB p65 sandwich ELISA assay (Imgenex Corp.). Jurkat cells were grown to 2×10^6 cells/mL and treated with 50 ng/mL PMA and 1 μg/mL PMA/PHA and incubated at 37° C., 5% CO2. The cells are harvested after 30 minutes and nuclear extracts are prepared as previously described by Dignam and coworkers (Dignam, et al., Nucl. Acids Res 11: 1475-1489 (1983)). The NF-κB p65 sandwich ELISA kit was then used to monitor and quantify p65 translocation into the nucleus according to the manufacturers protocol.

RIF-1 murine tumor = experiment: RIF-1 murine model of tumor growth delay; assay type: in vivo, mice; settings: for Days Delay (tumor growth delay) / Median (days to 4x) / Days to 4x (Ave ±SE): IP, imidazoline 100 mg/kg, cis-platin 4 mg/kg, camptothecin 6 mg/kg; for Median (days to 4x): untreated 7.0; for Days to 4x (Ave ±SE): untreated 7.3 ± 0.6; for chemopotentiation of camptothecin: combinational treatment with camptothecin (CPT); for chemopotentiation of camptothecin / chemopotentiation of cis-platin: RIF-1 tumors in mice; for chemopotentiation of cis-platin: combinational treatment with cis-platin (CDDP)
Protocol: Tumor cells were injected, bilaterally, into the backs of mice. When tumors reached 100 mm^3, the mice were treated with an intraperitoneal injection of the compound. Tumor volumes were measured 3 times a week until they reached 4 times the size they were on the first treatment day. Data is recorded as “Days to 4×’ or ratio of ‘Days to 4×” of the treated over untreated controls.

Bacillus cereus = experiment: standardized disk diffusion method (zone diameter / MIC); assay type: cell-based; settings: at the amount printed in the same cell
Protocol: as §2

Staphylococcus aureus = experiment: as above; assay type: cell-based; settings: at the amount printed in the same cell
Protocol: as §2

Bacillus subtillus = experiment: as above; assay type: cell-based; settings: at the amount printed in the same cell
Protocol: as §2

T1 sequence (Q04206 whole entry): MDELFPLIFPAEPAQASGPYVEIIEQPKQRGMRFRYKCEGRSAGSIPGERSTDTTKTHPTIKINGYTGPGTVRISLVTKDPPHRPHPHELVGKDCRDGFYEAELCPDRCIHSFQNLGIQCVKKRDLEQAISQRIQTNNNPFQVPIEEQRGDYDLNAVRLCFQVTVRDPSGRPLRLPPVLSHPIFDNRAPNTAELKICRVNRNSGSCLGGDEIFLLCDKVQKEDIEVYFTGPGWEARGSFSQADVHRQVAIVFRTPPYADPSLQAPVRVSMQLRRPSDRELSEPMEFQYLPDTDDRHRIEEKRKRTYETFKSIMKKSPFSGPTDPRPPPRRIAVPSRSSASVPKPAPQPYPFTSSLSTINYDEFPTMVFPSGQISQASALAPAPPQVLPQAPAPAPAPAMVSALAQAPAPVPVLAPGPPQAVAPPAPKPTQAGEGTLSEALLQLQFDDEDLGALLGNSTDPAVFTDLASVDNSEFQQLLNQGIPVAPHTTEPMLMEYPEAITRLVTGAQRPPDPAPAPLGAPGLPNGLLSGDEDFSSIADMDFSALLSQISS
T1 sequence (P19838 1-433 limits assumed): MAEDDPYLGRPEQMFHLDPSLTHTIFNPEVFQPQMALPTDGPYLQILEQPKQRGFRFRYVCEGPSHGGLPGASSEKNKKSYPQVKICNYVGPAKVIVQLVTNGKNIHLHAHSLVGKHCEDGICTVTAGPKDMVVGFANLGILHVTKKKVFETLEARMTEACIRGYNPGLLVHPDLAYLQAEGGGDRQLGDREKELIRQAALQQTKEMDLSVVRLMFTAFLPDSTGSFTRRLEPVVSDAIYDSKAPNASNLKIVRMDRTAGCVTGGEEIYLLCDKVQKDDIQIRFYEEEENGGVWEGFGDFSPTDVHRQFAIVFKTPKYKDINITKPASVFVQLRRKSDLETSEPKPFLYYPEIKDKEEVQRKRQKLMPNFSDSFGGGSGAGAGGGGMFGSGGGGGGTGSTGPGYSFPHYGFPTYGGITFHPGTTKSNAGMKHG

Compound | tolerability in mice [1] | IC50 (NF-κB [2]) | inhibition at 0.1 µM (NF-κB [3]) | zone of inhibition diameter (Micrococcus luteus) | inhibition of camptothecin induced NF-κB nuclear binding (NF-κB [4]) | inhibition of NF-κB p50/p65 heterodimer nuclear translocation [5] | Days Delay (tumor growth delay) (RIF-1 murine tumor) | Median (days to 4x) (RIF-1 murine tumor) | Days to 4x (Ave ±SE) (RIF-1 murine tumor) | chemopotentiation of camptothecin (RIF-1 murine tumor) | chemopotentiation of cis-platin (RIF-1 murine tumor) | also measured
C[C@]1(C(=O)O)N=C(c2ccccc2)N(c2ccc(F)cc2)[C@H]1c1ccccc1 (racemic) [Compound 28, dl-(4S,5S)-1-(4-Fluorophenyl)-4-methyl-2,5-diphenyl-4,5-dihydro-1H-imidazole-4-carboxylic acid] | well tolerated |  |  |  |  |  |  |  |  |  |  | Apoptosis (±S.D.) (CEM cells; Compound 1.0 μm alone, T-cells, 48 hour period, cells only = 1.00 (normalized)): 1.25 ± 0.18
C[C@]1(C(=O)O)N=C(c2ccccc2)N[C@H]1c1ccccc1 (racemic) [Compound 7, Dl (3S,4S)-4-Methyl-2,5-diphenyl-4,5-dihydro-1H-imidazole-4-carboxylic acid] |  | 20 nM | 38% | 10 mm |  |  |  |  |  |  |  | 
N.S=C(S)N1CCCC1 [PDTC, reference compound] |  |  |  |  | decrease of binding | significant inhibition; also recorded: inhibited NF-κB translocation |  |  |  |  |  | 
O=C(O)[C@@]1(c2ccccc2)N=C(c2ccccc2)N(Cc2ccccc2)[C@H]1c1ccccc1 (racemic) [Compound 4, Dl-(3S,4S)-1-Benzyl-2,4,5-triphenyl-4,5-dihydro-1H-imidazole-4-carboxylic acid] |  | 73 nM |  | 12 mm |  |  | -0.56 days | 6.5 days | 6.4 ± 0.2 days | No significant chemopotentiation | considerable chemopotentiation | tumors < 4x at Day 22 (RIF-1 murine tumor; cis-platin 4 mg/kg + compound 4 100 mg/kg IP): 4 of the 8; inhibition at 1 µM (NF-κB [3]; compound 1.0 μM): 65%; zone of inhibition diameter (Bacillus cereus): 11 mm; zone of inhibition diameter (Staphylococcus aureus): 12 mm; zone of inhibition diameter (Bacillus subtillus): 13 mm
O=C(O)[C@@]1(c2ccccc2)N=C(c2ccccc2)N(Cc2ccccc2)[C@H]1c1ccccc1 (racemic) [Compound 32, dl-(4S,5S)-1-Benzyl-2,4,5-triphenyl-4,5-dihydro-1H-imidazole-4-carboxylic acid] | well tolerated |  |  |  | inhibited camptothecin induced NF-κB nuclear binding in a dose responds manner | inhibition of nuclear translocation of NF-κB; also recorded: significantly inhibits |  |  |  |  |  | NF-κB-DNA complex formation (NF-κB [4]; 0.1 μM CPT + 10 μM compound 32 (lane 7 versus lane 5)): significant decrease; Apoptosis (±S.D.) (CEM cells): 1.98 ± 0.0001; chemopotentiation of cis-platin (apoptosis) (CEM cells; CEM cells, 0.1 micromolar cis-platin + 0.1 micromolar 32 versus 1.0 micromolar cis-platin): chemopotentiation of cis-platin; also recorded: chemopotentiate cis-platin; induction of apoptosis in combination with camptothecin (CEM cells; CEM cells, CPT 0.1 μM with varying concentrations of imidazoline, 48 hours): dose dependent enhancement of apoptosis
C[C@]1(C(=O)O)N=C(c2ccccc2)N(Cc2ccccc2)[C@H]1c1ccncc1 (racemic) [Compound 6, Dl-(3S,4S)-1-Benzyl-4-methyl-2-phenyl-5-pyridin-4yl-4,5-dihydro-1H-imidazole-4-carboxylic acid] |  | 300 nM | 84% | 10 mm |  |  | -0.41 days | 6.6 days | 6.6 ± 0.3 days | significant chemopotentiation | significant chemopotentiation | 
